Data on 4 molecules can be found in patent publication US20100022393A1, “Glyphosate applications in aquaculture” (priority 2008, published 2010).

Assay [1] deals with Nannochloropsis culture. In words: Nannochloropsis growth in F2 media in seawater, optical density at 680 and 750 nm. Type of assay: cell-based. To be noted: for IC50: 144 h, read-out: concentration that inhibited Nannochloropsis growth by approximately fifty percent (50%); for effect on Nannochloropsis growth: various concentrations, F2 media in seawater, after approximately six days, optical density 680 and 750 nm. The method, then:
According to one exemplary method, thirty (30) microliters of a Nannochloropsis culture was introduced into seven (7) milliliters of F2 media in seawater. The mixture was distributed evenly between six well plates. Glyphosate was added at various concentrations. Additional well plates were inoculated with the same Nannochloropis culture, however, the well plates were not treated with glyphosate. After approximately six days, optical density measurements at both 680 and 750 nanometers were taken in triplicate for each of the various glyphosate concentrations.
According to one exemplary method, thirty (30) microliters of a Nannochloropsis culture were inoculated into seven (7) milliliters of F2 media in seawater. The mixture was distributed evenly between six well plates. Ammonium chloride was added at various concentrations. Additional well plates were inoculated with the same Nannochloropis culture, but were not treated with ammonium chloride. After approximately six days, optical density measurements at both 680 and 750 nanometers were taken in triplicate for each of the various ammonium chloride concentrations.
According to one exemplary method, thirty (30) microliters of a Nannochloropsis culture were inoculated into seven (7) milliliters of F2 media in seawater. The mixture was distributed evenly between six well plates. Ammonium hydroxide was added at various concentrations. Additional well plates were inoculated with the same Nannochloropsis culture, but were not treated with ammonium hydroxide. After approximately six days, optical density measurements at both 680 and 750 nanometers were taken in triplicate for each of the various ammonium hydroxide concentrations.
According to one exemplary method, thirty (30) microliters of a Nannochloropsis culture was introduced into seven (7) milliliters of F2 media in seawater. The mixture was distributed evenly between six well plates. Glufosinate was added at various concentrations. Additional well plates were inoculated with the same Nannochloropsis culture, however, the well plates were not treated with glufosinate. After approximately six days, optical density measurements at both 680 and 750 nanometers were taken in triplicate for each of the various glufosinate concentrations.

Assay [2] concerns Dunaliella culture. In words: Dunaliella growth in F2 media in seawater, optical density at 680 and 750 nm. Type of assay: cell-based. The settings on record: for effect on Dunaliella growth: various concentrations, F2 media in seawater, after approximately six days, optical density 680 and 750 nm. The method, then: According to one exemplary method, thirty (30) microliters of a Dunaliella culture were inoculated into seven (7) milliliters of F2 media within seawater. The mixture was distributed evenly between six well plates. Glyphosate was added at various concentrations. Additional well plates were inoculated with the same Dunaliella culture, but were not treated with glyphosate. After approximately six days, optical density measurements at both 680 and 750 nanometers were taken in triplicate for each of the various glyphosate concentrations.
According to one exemplary method, thirty (30) microliters of a Dunaliella culture were inoculated into seven (7) milliliters of F2 media in seawater. The mixture was distributed evenly between six well plates. Ammonium chloride was added at various concentrations. Additional well plates were inoculated with the same Dunaliella culture, but were not treated with ammonium chloride. After approximately six days, optical density measurements at both 680 and 750 nanometers were taken in triplicate for each of the various ammonium chloride concentrations.
According to one exemplary method, thirty (30) microliters of a Dunaliella culture were inoculated into seven (7) milliliters of F2 media in seawater. The mixture was distributed evenly between six well plates. Ammonium hydroxide was added at various concentrations. Additional well plates were inoculated with the same Dunaliella culture, but were not treated with ammonium hydroxide. After approximately six days, optical density measurements at both 680 and 750 nanometers were taken in triplicate for each of the various ammonium hydroxide concentrations.

SMILES strings stand for the structures.

For the molecule `O=C(O)CNCP(=O)(O)O` [glyphosate], in assay [1], the IC50 was roughly 800 µM and the “effect on Nannochloropsis growth” value is listed as “controlled (inhibited) Nannochloropsis growth”. For the same molecule, in assay [2] (144 h, read-out: concentration that inhibited Dunaliella growth by approximately fifty percent (50%)), the IC50 was roughly 1200 µM. Moreover, the “effect on Dunaliella growth” value in assay [2] was “inhibited Dunaliella growth”.

As for `Cl.N` [ammonium chloride], the “effect on Nannochloropsis growth” value in assay [1] is recorded as “did not inhibit Nannochloropsis growth”. Further, in assay [2], the “effect on Dunaliella growth” value was “did not inhibit Dunaliella growth”.

For the molecule `N` [ammonium hydroxide], the “effect on Nannochloropsis growth” value in assay [1] is recorded as “did not inhibit Nannochloropsis growth”. Further, the “effect on Dunaliella growth” value in assay [2] was “did not inhibit Dunaliella growth”.

As for `CP(=O)(O)CCC(N)C(=O)O` (stereo not shown) [glufosinate], in assay [1], the IC50 was roughly 25 µM and the “effect on Nannochloropsis growth” value was “controlled (inhibited) Nannochloropsis growth”.
